# Measured values: patent US12221625B2, “Method for producing retinal pigment epithelial cells” (SUMITOMO PHARMA CO., LTD., priority 2015, dated 2025)
# Legend:
# [1] = system: human iPS cells (QHJI01 line and 1231A3 line); assay: MEK inhibitors PD184352, U0126, TAK-733, AZD-8330 in first step (Example 10); assay type: cell-based; conditions: 6 days; 1 μM PD0325901; 1.5, 3, 6 μM PD184352; 5, 10 μM U0126; 0.3 μM TAK-733; 0.3 μM AZD-8330; day 49 and day 50 of culture
# Excerpt: The medium used was “STEMFIT™” AK03N medium (Ajinomoto Co., Inc.) (hereinafter AK03N medium).
# [2] = system: human iPS cells (QHJI01 line); assay: Differentiation induction effect of Nodal or Wnt signal transduction pathway inhibitor alone in second step (Example 12); assay type: cell-based; conditions: second step day 1 to day 12 with 5 μM SB-431542 and/or 3 μM CKI-7, after first step with 1 μM PD0325901 for 6 days; day 43 of culture
# Excerpt: (§1) 2014 Jan. 8; 4: 3594”. The medium used was “STEMFIT™” AK03N medium (Ajinomoto Co., Inc.) (hereinafter AK03N medium).
# In the second step, the following 3 kinds of media were used.
# [3] = system: human iPS cells (201B7 line and 1231A3 line); assay: Production of RPE cells from human iPS cells including FGF receptor inhibitor treatment step (Example 2); assay type: cell-based; conditions: PD173074 100 nM
# Excerpt: In one embodiment, to study the effect of the FGF receptor inhibitor in a medium free of a factor for maintaining undifferentiated state (bFGF), StemSure hPSC Medium Δ (Wako Pure Chemical Industries, Ltd.) (hereinafter StemSure hPSC Medium Δ w/o bFGF) not added with bFGF was used.
# [4] = system: human iPS cells (201B7 line and 1231A3 line); assay: Production of RPE cells including combined treatment step of MEK inhibitor and/or FGF receptor inhibitor and various inhibitors or agonist (Example 3); assay type: cell-based; conditions: first step 6 days in AK03 medium; observed 38 to 47 days of culture; FIG. 7
# Experimental: (§2) The medium used was “STEMFIT™” AK03 medium (Ajinomoto Co., Inc.) (hereinafter AK03 medium).
# Production of retinal pigment epithelial (RPE) cells including a combined treatment step of MEK inhibitor and/or FGF receptor inhibitor, and various inhibitors, signal transduction pathway inhibitor or signal transduction pathway agonist was performed as follows. iPS cells under culture for maintaining undifferentiated state were treated with 0.5×TrypLE select, dissociated using a cell scraper, dispersed to single cells by pipetting, seeded in a 6-well culture plate coated with iMatrix-511 (Nippi) (0.5 μg/cm^2) at 1.2×10^4 cells per 1 well and cultured in a ROCK inhibitor [10 μM Y-27632 (Wako Pure Chemical Industries, Ltd.)]-containing AK03 medium under 37° C., 5% CO2 conditions. The next day of cell seeding, PD0325901 (SIGMA) (final concentration 1 μM) as an MEK inhibitor, PD173074 (SIGMA) (final concentration 100 nM) as an FGF receptor inhibitor, LDN193189 (STEMGENT) (final concentration 100 nM) as a BMP receptor inhibitor, SAG (Enzo Life Sciences) (final concentration 30 nM) as an Shh signal transduction pathway agonist, and Go6983 (SIGMA) (final concentration 2 μM) as a PKC inhibitor in the combination shown in FIG. 7 were added to the medium (start of the first step) and the cells were exposed thereto for 6 days (completion of the first step). […]
# [5] = system: human iPS cells (Ff-I01 line and QHJI01 line); assay: Production of RPE cells including MEK inhibitor or FGF receptor inhibitor treatment step using iPS cells Ff-I01, QHJI01 (Example 4); assay type: cell-based; conditions: PD0325901 1 μM or PD173074 100 nM, 6 days, AK03N medium; day 43 of culture; both Ff-I01 and QHJI01 lines
# Excerpt: as §1
# [6] = system: human iPS cells (QHJI01 line); assay: Number of days of exposure of each inhibitor in first step (Example 5); assay type: cell-based; conditions: day 48 of culture; for brown-black cell population: 4 days-6 days of exposure; for proportion of cells that developed color in the whole well versus number of exposure days: exposure 1 day to 6 days; for brown-black cell populations: exposure for not less than 2 days, PD0325901 1 μM or PD173074 100 nM
# Excerpt: as §1
# [7] = system: human iPS cells (QHJI01 line); assay: Inhibitor concentrations in MEK inhibitor or FGF receptor inhibitor treatment step (Example 8); assay type: cell-based; conditions: 6 days, day 36 and day 49 of culture
# Excerpt: as §1
# [8] = system: human iPS cells (QHJI01 line); assay: Seeded cell number in transition of first step to second step (Example 9); assay type: cell-based; conditions: all seeded cell number (0.2, 0.4, 0.6, 1.0, 2.0, or 4.0×10^4 cells/cm^2) at start of second step; PD0325901 1 μM or PD173074 100 nM, 6 days; day 49 of culture
# Excerpt: as §1
# [9] = system: human iPS cells (QHJI01 line and 1231A3 line); assay: FGF receptor inhibitor SU5402 in first step (Example 11); assay type: cell-based; conditions: 6 days; 100 nM PD173074; 5, 10, 20 μM SU5402; day 49 of culture
# Excerpt: as §1
# [10] = system: human iPS cells (1231A3 line); assay: Production of RPE cells including MEK inhibitor or FGF receptor inhibitor treatment step, plate observation (Example 14); assay type: cell-based; conditions: PD0325901 1 μM or PD173074 100 nM, 6 days; day 43 of culture
# Excerpt: as §1
# RPE65, BEST1, CRALBP = assay: RT-PCR of retinal pigment epithelial cell markers in produced RPE cells (Example 14); assay type: cell-based, human; conditions: PD0325901 1 μM or PD173074 100 nM, 6 days; cells collected day 43 of culture
# Experimental: After observation on day 43 of culture, the cells were collected, RNA was extracted and RT-PCR was performed. RNeasy Micro Kit (QIAGEN) was used for RNA extraction, Oligo (dT)12-18 Primer (Invitrogen) and SuperScript III Reverse Transcriptase (Invitrogen) were used for reverse transcription reaction, and Blend Taq-Plus- (TOYOBO) was used for PCR. The primer sequences of RPE65, BEST1, CRLBP, GAPDH are as described below. […] NO: 1), […] NO: 2), […] NO: 3), […] NO: 4), CRALBP-[…] NO: 5), CRALBP-[…] NO: 6), […] NO: 7), […] NO: 8). The number of cycles of the PCR reaction was 30 cycles for RPE65, BEST1, GAPDH, and 35 cycles for CRALBP. PCR products were detected as a single band by agarose gel electrophoresis at near 369 bp for RPE65, near 261 bp for BEST1, near 341 bp for CRALBP, and near 452 bp for GAPDH. As a positive control, primary human RPE (hRPE) was used and, as a negative control, iPS cells (undifferentiated iPSC) cultured under conditions for maintaining undifferentiated state were used.
# [11] = system: human iPS cells (201B7 line and 1231A3 line); assay: Production of RPE cells from human iPS cells including MEK inhibitor treatment step (Example 1); assay type: cell-based
# Experimental: The medium used was “STEMFIT™” AK03 medium (Ajinomoto Co., Inc.) (hereinafter AK03 medium) or Essential 8 medium (Life Technologies).
# Production of retinal pigment epithelial (RPE) cells including an MEK inhibitor treatment step was performed as follows. iPS cells under culture for maintaining undifferentiated state were treated with 0.5×TrypLE select (mixture of equal amounts of TrypLE select (Life Technologies)) and 0.5 mM EDTA/PBS(−)), dissociated using a cell scraper, dispersed to single cells by pipetting, seeded in a 6-well culture plate coated with iMatrix-511 (Nippi) (0.5 μg/cm^2) at 1.2×10^4 cells per 1 well, and cultured in an AK03 medium or Essential 8 medium containing a ROCK inhibitor [10 μM Y-27632 (Wako Pure Chemical Industries, Ltd.)] under 37° C., 5% CO2 conditions. On the next day of seeding, PD0325901 (SIGMA) as an MEK inhibitor was added to the AK03 medium at a final concentration of 1 μM or Essential 8 medium at a final concentration of 0.03 μM (start of the first step) and the cells were exposed thereto for 6 days (completion of the first step). […]
# [12] = system: human iPS cells (1231A3 line); assay: MEK inhibitor exposure period in MEK inhibitor treatment step (Example 6); assay type: cell-based; conditions: PD0325901 1 μM, day 37 of culture
# Experimental: as §2
# Production of retinal pigment epithelial (RPE) cells including an MEK inhibitor treatment step was performed as follows. iPS cells under culture for maintaining undifferentiated state were treated with 0.5×TrypLE select (mixture of equal amounts of TrypLE select (Life Technologies) and 0.5 mM EDTA/PBS(−)), dissociated using a cell scraper, dispersed to single cells by pipetting, seeded in a 6-well culture plate coated with iMatrix-511 (Nippi) (0.5 μg/cm^2) at 1.2×10^4 cells per 1 well and cultured in a ROCK inhibitor [10 μM Y-27632 (Wako Pure Chemical Industries, Ltd.)]-containing AK03 medium under 37° C., 5% CO2 conditions. On the next day of seeding, 4 days later or 6 days later, PD0325901 (SIGMA) (final concentration 1 μM) as an MEK inhibitor was added to the AK03 medium (start of the first step) and the cells were exposed thereto for 6 days, 3 days or 1 day (completion of the first step). In addition, cells exposed to MEK inhibitor for 6 days were treated with 0.5×TrypLE select, dissociated using a cell scraper, dispersed to single cells by pipetting, seeded in a 6-well culture plate coated with iMatrix-511 (Nippi) (0.5 μg/cm^2) at 0.8×10^4 cells per 1 well and further cultured for 7 days in AK03 medium containing Y-27632 (final concentration 10 μM) and PD0325901 (final concentration 1 μM) under 37° C., 5% CO2 conditions, whereby the cells were exposed to the MEK inhibitor for 13 days (completion of the first step). Thereafter, the cells were treated with 0.5×TrypLE select, dissociated using a cell scraper, dispersed to single cells by pipetting, seeded in a 6-well culture plate coated with iMatrix-511 (0.5 μg/cm^2) at 1.2×10^6 cells per 1 well and cultured under 37° C., 5% CO2 conditions (start of the second step). […]
smiles,measurement,setting,value
"Cc1cc(C(=O)NOCCO)c(Nc2ccc(I)cc2F)n(C)c1=O [AZD-8330, 2-(2-fluoro-4-iodophenylamino)-N-(2-hydroxyethoxy)-1,5-dimethyl-6-oxo-1,6-dihydropyridine-3-carboxamide]",emergence of brown-black cell population,[1],emergence of a brown-black cell population could be confirmed over a wide area
"NCCNS(=O)(=O)c1ccc(Cl)c2ccncc12 [WNTi, N-(2-Aminoethyl)-5-chloroisoquinoline-8-sulfonamide]",emergence of cells showing typical characteristics of RPE cell,[2],"the brown-black area in the whole well decreased; however, emergence of a sufficient number of cells showing the typical characteristics of RPE cell could be confirmed"
"CCN(CC)CCCCNc1ncc2cc(-c3cc(OC)cc(OC)c3)c(NC(=O)NC(C)(C)C)nc2n1 [PD173074, N-[2-[[4-(Diethylamino)butyl]amino]-6-(3,5-dimethoxyphenyl)pyrido[2,3-d]pyrimidin-7-yl]-N′-(1,1-dimethylethyl)urea]",cell morphology by microscopic observation,"[3]; 6 days first step, 201B7, FIG. 5","the cells showed typical characteristics of RPE cell such as a brown-black, polygonal, cobblestone-like morphology"
same,emergence of brown-black cell population on culture plate,"[3]; 6 days, AK03 medium, Essential 8 medium or StemSure hPSC Medium Δ w/o bFGF, observed 38 to 42 days, 201B7 line and/or 1231A3 line",emergence of a brown-black cell population could be confirmed over a wide area
same,emergence of RPE cells showing typical characteristics,[4],"emergence of RPE cells showing typical characteristics of RPE cell such as a brown-black, polygonal, cobblestone-like morphology could be confirmed"
same,emergence of brown-black cell population on culture plate,[5],emergence of a brown-black cell population could be confirmed over a wide area
same,brown-black cell population,[6],a remarkable increase in the brown-black cell population was seen
same,proportion of cells that developed color in the whole well versus number of exposure days,[6],the proportion of cells that developed color in the whole well increased as the number of exposure day increased up to 6 days of exposure
same,brown-black cell populations,[6],brown-black cell populations increased
same,emergence of brown-black cell population,[7]; all FGF receptor inhibitor concentrations (25-400 nM),emergence of a brown-black cell population could be confirmed over a wide area
same,emergence of brown-black cell population,[8],emergence of a brown-black cell population could be confirmed over a wide area
same,emergence of brown-black cell population,[9],emergence of a brown-black cell population could be confirmed over a wide area
same,emergence of brown-black cell population,[10],emergence of a brown-black cell population could be confirmed over a wide area
same,"bands of retinal pigment epithelial cell markers RPE65, BEST1, CRALBP by RT-PCR","RPE65, BEST1, CRALBP",clear bands could be confirmed
O=C(NOCC1CC1)c1ccc(F)c(F)c1Nc1ccc(I)cc1Cl [PD184352],emergence of brown-black cell population,[1],emergence of a brown-black cell population could be confirmed over a wide area
"O=C(NOC[C@H](O)CO)c1ccc(F)c(F)c1Nc1ccc(I)cc1F [PD0325901, N-[(2R)-2,3-Dihydroxypropoxy]-3,4-difluoro-2-[(2-fluoro-4-iodophenyl)amino]-benzamide]",emergence of brown-black cell population on culture plate,"[11]; PD0325901 1 μM in AK03 medium or 0.03 μM in Essential 8 medium, exposed 6 days, observed 38 to 42 days of culture, both 201B7 and 1231A3 lines",emergence of a brown-black cell population could be confirmed over a wide area
same,cell morphology by microscopic observation,"[11]; PD0325901 1 μM, 6 days first step, 201B7, FIG. 2","the cells showed typical characteristics of RPE cell such as a brown-black, polygonal, cobblestone-like morphology"
same,emergence of RPE cells showing typical characteristics,[4],"emergence of RPE cells showing typical characteristics of RPE cell such as a brown-black, polygonal, cobblestone-like morphology could be confirmed"
same,emergence of brown-black cell population on culture plate,[5],emergence of a brown-black cell population could be confirmed over a wide area
same,brown-black cell population,[6],a remarkable increase in the brown-black cell population was seen
same,proportion of cells that developed color in the whole well versus number of exposure days,[6],the proportion of cells that developed color in the whole well increased as the number of exposure day increased up to 6 days of exposure
same,brown-black cell populations,[6],brown-black cell populations increased
same,emergence of brown-black cell population,[12]; exposure for 3 days,emergence of a brown-black cell population could be confirmed over a wide area
same,emergence of brown-black cell population,[12]; exposure for 6 days,emergence of a brown-black cell population could be confirmed over a wide area
same,emergence of colored cell population,[12]; exposure for 13 days,sufficient emergence of colored cell population was also confirmed
same,cells showing typical characteristics of RPE cell,[12]; exposure for one day,almost no cell that showed typical characteristics of RPE cell
same,emergence of brown-black cell population,[7]; all MEK inhibitor concentrations (0.25-4 μM),emergence of a brown-black cell population could be confirmed over a wide area
same,emergence of brown-black cell population,[8],emergence of a brown-black cell population could be confirmed over a wide area
same,emergence of brown-black cell population,[1],emergence of a brown-black cell population could be confirmed over a wide area
same,emergence of brown-black cell population,[10],emergence of a brown-black cell population could be confirmed over a wide area
same,"bands of retinal pigment epithelial cell markers RPE65, BEST1, CRALBP by RT-PCR","RPE65, BEST1, CRALBP",clear bands could be confirmed
"NC(=O)c1ccc(-c2nc(-c3ccc4c(c3)OCO4)c(-c3ccccn3)[nH]2)cc1 [NODALi, 4-[4-(1,3-Benzodioxol-5-yl)-5-(pyridin-2-yl)-1H-imidazol-2-yl]benzamide]",emergence of cells showing typical characteristics of RPE cell,[2],"emergence of cells showing the same level of typical characteristics of RPE cell such as a brown-black, polygonal, cobblestone-like morphology could be confirmed"
"Cn1c(=O)c(F)c(Nc2ccc(I)cc2F)c2c(=O)n(C[C@@H](O)CO)cnc21 [TAK-733, (R)-3-(2,3-dihydroxypropyl)-6-fluoro-5-(2-fluoro-4-iodophenylamino)-8-methylpyrido[2,3-d]pyrimidine-4,7(3H, 8H)-dione]",emergence of brown-black cell population,[1],emergence of a brown-black cell population could be confirmed over a wide area
"N#CC(=C(N)Sc1ccccc1N)C(C#N)=C(N)Sc1ccccc1N [U0126, 1,4-Diamino-2,3-dicyano-1,4-bis[2-aminophenylthio]butadiene]",emergence of brown-black cell population,[1],emergence of a brown-black cell population could be confirmed over a wide area
"Cc1c[nH]c(C=C2C(=O)Nc3ccccc32)c1CCC(=O)O [SU5402, 2-[(1,2-Dihydro-2-oxo-3H-indol-3-ylidene)methyl]-4-methyl-1H-pyrrole-3-propanoic acid]",emergence of brown-black cell population,[9],emergence of a brown-black cell population could be confirmed over a wide area
